Results: patent US20200129523A1, “SHIP INHIBITION TO INDUCE EXPRESSION OF GRANULOCYTE COLONY STIMULATING FACTOR IN A SUBJECT” (THE RESEARCH FOUNDATION FOR THE STATE UNIVERSITY OF NEW YORK, priority 2014, published 2020)

Key:
LT-HSC = assay: Cell cycle analysis of BM LT-HSC (Hoechst / Pyronin Y); format: in vivo, C57BL/6NTac mice; details: 3AC 26.5 mg/kg i.p. 5 days, vs vehicle
Procedure: WBM cells were stained with LSKCD34 and fixed in BD Cytofix/Cytoperm buffer for 30 minutes on ice. Fixed cells were stained with 10 μM Hoechst 33342 (HO; Sigma-Aldrich) for 45 min at 37° C. The cells were then incubated with 5 μM Pyronin Y (PY; Sigma-Aldrich) in HBSS medium with 2% FBS in the presence of 50 μM verapamil (Sigma-Aldrich) for 30 minutes at 37° C., washed, and immediately analyzed by UV laser-equipped BD LSRII analyzer.

[1] = tested on: radiation-induced myeloablation; details: post radiation-induced myeloablation; cited from earlier work
[2] = transient SHIPi treatment; cited from earlier work
HSC = assay: CRU assay (competitive repopulating units), primary and secondary; format: in vivo, mice
Procedure: CD45.1^+45.2^+-recipient mice were given a split dose of 550 Rads (x-ray source, RS2000-RAD source technologies, inc.) 4 hours apart for a lethal total dose of 1100 Rads. WBM (5×10^5) cells from 3AC (CD45.2) treated mice were competed with WBM cells from vehicle (CD45.1) treated mice and injected retro-orbitally into CD45.1^+45.2^+ hosts. PBMC multi-lineage reconstitution was evaluated every month post-transplant for 4 months. Transplanted mice were euthanized and serially transplanted to determine self-renewal capacity. Repopulating Units (RU) determination was previously decribed.^15 Briefly, RU=(C×CD45.2 repopulation %)/(100−CD45.2 repopulation %) where C=10^5 competitor cells.^6
Normal Repopulating units (RU) are calculated based on total number of competitor cells transplanted. Due to the expansion in the bone marrow compartment of SHIPi treated mice, we calculated the absolute RU numbers based on RU output determined by CRU assay and total BM cellularity. Total BM cellularity was determined via hemacytometer (BioRAD, TC20 cell counter) based on a total BM cells obtained from an intact set of femurs and tibias for each mouse in the study. Absolute RU=(Total BM cellularity/5×10^5)×RU.

HSC compartment = assay: Flow cytometric quantitation of hematopoietic stem/progenitor populations and cellularity in bone marrow of treated mice; format: in vivo, C57BL/6NTac mice
Procedure: HSC phenotype, cell-cycle progression, G-CSF neutralization, and CXCR4 MFI determination by FACS analysis was performed on whole bone marrow (WBM) cells harvested from a tibia and femur pair obtained from SHIPi and vehicle treated 8-12 week old male C57BL/6NTac mice (Taconic). Generation of the CD45.1×CD45.2 strain utilized in the CRU assay were obtained by intercrossing C57BL6/J (CD45.2) and B6.SJL (CD45.1), as previously described.^5 The SUNY Upstate Medical University Committee for Humane Use of Animals approved all animal experiments.
In vivo administration of 3AC was previously described.^14 Briefly, 3AC is resuspended as an emulsion in 0.3% Klucel/H20. Mice were treated via intraperitoneal injection every 24 hrs for 5 days at a final concentration of 26.5 mg/kg. Analysis and transplants were performed on day 6. The 3AC derivative K118 (Soluble SHIPi) was suspended in pure H2O and heated at 100° C. for ˜15 min to allow the compound to enter solution. The delivery method was the same as with 3AC, however, the mice were treated for 5 days at a final concentration of 10 mg/kg. Vehicle cohorts for 3AC were treated with 0.3% Klucel/H20 and K118 were treated with pure H2O.
Cell isolation was performed according to method detailed in Hazen et al.^6 Briefly, WBM was flushed from both femurs and tibias per mouse with a 25-gauge needle, red blood cell lysed (eBioscience), and resuspended in staining media comprised of Hanks Buffered Saline Solution (HBSS), 2% heat inactivated fetal bovine serum (FBS), and 10 mM HEPES (Sigma). The cells harvested for the CRU assay were flushed, red blood cell lysed, washed, and resuspended in sterile phosphate buffered saline (PBS). Peripheral blood mononuclear cells (PBMC) were collected via submandibular bleed in EDTA Micorvette tubes (SARSTEDT).
All antibodies were from BD Biosciences or eBioscience. All WBM, PBMC and BM derived MSC cell populations were Fc blocked on ice for 10 min prior to antibody staining. Global reconstitution was determined by staining PBMC with CD45.1-PeCy7 and CD45.2-APC. Multi-lineage repopulation was determined by staining PBMC with CD3-FITC (145-2C11), CD19-PerCP5.5 (1D3), Mac1-PE (M1/70), Gr1-Alexa700 (RB6-8C5) and NK1.1-APC-Cy7 (PK136). The Lin−cKit+Sca1+CD34−Flk2− (LSKF34−) phenotype was utilized to determine frequency of LT-HSC, ST-HSC, and MPP; the stain was comprised of Lin-PerCP 5.5, cKit-APC (2B8), Sca1-PeCy7 (D7), CD34-FITC (RAM34), Flk2-PE (A2F10). LSKF-CXCR4 stain was used to determine surface expression of the homing marker CXCR4. All cells were washed twice with staining media, resuspended in staining media plus DAPI for dead cell exclusion, and then analyzed on a flow cytometer LSRII (BD Biosciences). All flow cytometry data was analyzed using FlowJo (9.4.3) software.

G-CSF = G-CSF ELISA of serum of treated mice; format: in vivo; details: 3AC 26.5 mg/kg i.p. 5 days, vs vehicle
Procedure: Peripheral blood was collected in serum separation microvette tubes (SARSTEDT). Tubes were kept at room temperature for 2 hrs. and then spun at 2000×g for 20 min as per manufacturers recommendation. Serum levels of G-CSF in treated mice were determined using a Mouse G-CSF Quantikine Elisa kit (R&D systems).

[3] = tested on: radiation-induced myeloablation; assay: Lymphocyte and WBC recovery in radiation induced bone marrow failure model; format: in vivo, C57BL/6J mice; details: 550 Rads sub-lethal irradiation, 3AC daily 7 days i.p., vs vehicle
Procedure: We utilized a radiation-induced hematological myeblation to create our bone marrow failure model. C57BL/6J mice (8-12 week) (The Jackson Laboratory, Bar Harbor, Me.) were sub-lethally irradiated at 550 Rads. 3AC and vehicle were administered daily for 7 days post irradiation via IP injection. PB was collected by submandibular bleeding on days 8, 15, 22 and 32 and analyzed for WBC and lymphocyte counts [Thousands per microliter (K/uL)] on a Hemavet 950S (Drew Scientific, Waterbury, Conn., USA) analysis.

PDGFRα+CD51+ MSC = assay: In vivo MSC immunophenotyping by flow cytometry; parameters: species or system mice; details: 3AC 26.5 mg/kg i.p. 5 days, vs vehicle
Procedure: PDGFRα^+CD51^+ MSC were detected using methods and reagents as described by Iyer et al.^8 Femurs, tibias, humeri, ulnas, radii, and pelvis were dissected; the bone fragments were cleaned, cut into tiny pieces, and then crushed using a mortar and pestle. The bone chips were then washed several times in HBSS supplemented with 2% heat-inactivated FBS (HBSS/2% HI-FBS) and HBSS only, and then spun at 350×g for 5 mins. The pellet was re-suspended in 3 mg/mL type I collagenase (Worthington) and 15 μg/mL DNAase (Sigma, St. Louis, Mo.) dissolved in HBSS and incubated at 37° C. for 30 min at 110 rpm, this step was repeated twice. Following incubation, mononuclear cells were obtained using a Ficoll gradient ([…] and Histopaque-1077; Sigma, St. Louis, Mo.), and were then used for further analysis. Cells were stained with antibodies as described in Iyer et al.^8

[4] = cited from earlier work
[5] = 3AC 26.5 mg/kg i.p. 5 days, BM, vs vehicle
[6] = 3AC 26.5 mg/kg i.p. 5 days, vs vehicle

## CC(C)CCC[C@@H](C)[C@@H]1CC[C@H]2[C@@H]3CCC4C[C@H](N)CC[C@]4(C)[C@H]3CC[C@@]21C (stereo partly drawn) [3AC]
LT-HSC
  frequency of LT-HSC in S and G2 phases of the cell cycle: significantly greater frequency
[1]
  recovery of neutrophil numbers: more rapid recovery
  recovery of platelet numbers: more rapid recovery
[2]
  development of pulmonary and gastrointestinal inflammation: does not induce
HSC; BM of 3AC vs vehicle donors
  CRU frequency: increases
HSC; after accounting for total BM cellularity, vs vehicle
  increase in cells with HSC capacity (absolute CRU numbers): ~6 fold
HSC; primary CRU, 3AC-treated vs vehicle-treated donors, monthly for 4 months post-transplant
  global blood cell reconstitution by BM cells of treated donors: significantly greater
HSC; primary CRU, entire post-transplant period
  lineage reconstitution (B, T, NK, myeloid): greater proportion of all major blood cell lineages analyzed
HSC; secondary CRU hosts, 1 month post-transplant
  bias or impairment in lineage output after serial transfer: did not observe a significant bias or impairment
HSC; secondary CRU, vs competing vehicle BM
  repopulation of all major lineages in secondary hosts: significantly higher
HSC compartment; [5]
  absolute number of LSK cells: significantly increases
  frequency of LSK cells: significantly increases
HSC compartment; 3AC 26.5 mg/kg i.p. 5 days, MFI by FACS
  CXCR4 surface expression on expanded HSC pool: does not cause a reduction
HSC compartment; [6]
  frequency of LT-HSC (LSKFlk2-CD34-) in BM: increases the frequency
  frequency of MPP (LSKFlk2+CD34+) in BM: increases the frequency
  frequency of ST-HSC (LSKFlk2-CD34+) in BM: increases the frequency
HSC compartment; 3AC 26.5 mg/kg i.p. 5 days, frequency combined with BM cellularity
  expansion in BM of cells with a primitive HSC phenotype: 3-4 fold
HSC compartment; 3AC 26.5 mg/kg i.p. every 24 hrs for 5 days, analysis day 6, vs vehicle
  bone marrow cellularity (BMC): significant increase
G-CSF
  G-CSF production in vivo: super-induces
G-CSF; listed as SHIPi
  G-CSF production in vivo: increases
[3]
  recovery of lymphocyte numbers: significantly improved recovery
  recovery of white blood cell (WBC) numbers: significantly improved recovery
PDGFRα+CD51+ MSC
  Pα+51+ MSC compartment size in BM: approximate doubling
[4]
  aqueous solubility: poor aqueous solubility
